In patent publication US6821962B2, “Quinoline and quinoxaline compounds which inhibit platelet-derived growth factor and /or p56lck tyrosine kinases” (Aventis Pharmaceuticals Inc., priority 1997, dated 2004):
Structures can show the parent of a compound that is named as a salt.

How the values were obtained:
Lck = Lck (Homo sapiens, UniProt P06239); settings: background, literature report; cited from earlier work
Fyn = Fyn (Homo sapiens, UniProt P06241); settings: background, literature report (Hanke et al.); cited from earlier work
Sequence of Fyn (P06241 whole entry, species assumed): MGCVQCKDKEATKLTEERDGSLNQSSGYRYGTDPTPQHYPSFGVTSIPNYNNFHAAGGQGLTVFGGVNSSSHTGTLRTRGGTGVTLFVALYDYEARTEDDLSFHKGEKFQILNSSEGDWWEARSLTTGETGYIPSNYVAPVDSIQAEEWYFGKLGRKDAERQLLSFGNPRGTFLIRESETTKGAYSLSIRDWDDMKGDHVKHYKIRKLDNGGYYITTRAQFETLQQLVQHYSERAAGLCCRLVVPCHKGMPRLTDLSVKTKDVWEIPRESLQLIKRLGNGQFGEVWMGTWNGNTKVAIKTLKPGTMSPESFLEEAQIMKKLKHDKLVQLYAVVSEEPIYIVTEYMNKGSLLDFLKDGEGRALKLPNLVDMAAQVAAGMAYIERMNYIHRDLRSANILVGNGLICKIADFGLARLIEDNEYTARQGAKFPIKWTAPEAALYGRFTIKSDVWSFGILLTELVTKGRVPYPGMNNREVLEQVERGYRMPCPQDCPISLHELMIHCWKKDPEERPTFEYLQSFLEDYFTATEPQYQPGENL

Sequence of Lck (P06239 whole entry, species assumed): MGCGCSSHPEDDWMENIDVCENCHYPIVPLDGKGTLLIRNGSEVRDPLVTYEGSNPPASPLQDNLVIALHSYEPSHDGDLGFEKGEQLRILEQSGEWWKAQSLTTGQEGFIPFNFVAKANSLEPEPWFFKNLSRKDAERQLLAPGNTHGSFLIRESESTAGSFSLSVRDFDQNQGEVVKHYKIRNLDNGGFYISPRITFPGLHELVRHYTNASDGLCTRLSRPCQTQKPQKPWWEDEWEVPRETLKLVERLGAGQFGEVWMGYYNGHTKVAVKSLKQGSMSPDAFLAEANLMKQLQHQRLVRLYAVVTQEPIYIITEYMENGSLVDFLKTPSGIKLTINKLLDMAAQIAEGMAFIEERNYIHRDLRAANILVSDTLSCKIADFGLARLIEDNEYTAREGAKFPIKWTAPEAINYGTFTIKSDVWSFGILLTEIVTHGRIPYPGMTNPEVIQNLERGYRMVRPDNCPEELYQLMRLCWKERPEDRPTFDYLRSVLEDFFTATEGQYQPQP

melting point | Structure (SMILES) | potency against Lck (in words) (Lck) | potency against Fyn (in words) (Fyn)
185 to 190 °C (dec.) | COc1cc2ncc(CNC3CCCCC3)nc2cc1OC (as salt: HCl) [Example 11, Cyclohexyl-(6,7-dimethoxyquinoxalin-2-ylmethyl)-amine] | – | –
75 to 78 °C | COc1cc2ncc(OC3CCCCC3)nc2cc1OC1CCCCC1 [Example 10, 2,7-Bis-cyclohexyloxy-6-methoxy-quinoxaline] | – | –
170 to 173.5 °C | COc1cc2cc(NCC(C)(C)CO)cnc2cc1OC [Example 13, 3-(6,7-Dimethoxyquinolin-3-yl-amino)-2,2-dimethyl-propan-1-ol] | – | –
194 to 196 °C | COc1cc2ncc(NC3CCCCC3)nc2cc1N1CCOCC1 [Example 14, Cyclohexyl-(6-methoxy-7-morpholin-4-yl-quinoxalin-2-yl)-amine] | – | –
184 to 186 °C | COc1cc2ncc(N[C@@H]3C[C@H]4CC[C@@H]3C4)nc2cc1OC [Example 22, (1R,2R,4S)-(+)-Bicyclo[2.2.1]hept-2-yl-(6,7-dimethoxyquinoxalin-2-yl)-amine] | – | –

More lines, now with the values behind:

Structure (SMILES) | melting point | potency against Lck (in words) (Lck) | potency against Fyn (in words) (Fyn)
CC(C)Oc1ccc2nc(Nc3ccccc3)cnc2c1.Cl | 205 to 210 °C (dec.) | – | –
COc1cc2ncc(NC3CCCCC3)nc2cc1OC [Example 3, 2-cyclohexylamino-6,7-dimethoxyquinoxaline] | 188 to 189.5 °C | – | –
Oc1ccc2nc(Nc3ccccc3)cnc2c1 [Example 8, 2-Anilino-6-quinoxalinol] | 211 to 213 °C | – | –
c1ccc(Nc2cnc3cc(O[C@@H]4CCOC4)ccc3n2)cc1 [Example 9, Phenyl-[6-(tetrahydrofuran-3-(R)-yl-oxy)quinoxalin-2-yl]amine] | 173 to 175 °C | – | –
Cc1ccc(-c2nn(C(C)(C)C)c3ncnc(N)c23)cc1 [PP1] | – | low nanomolar | low nanomolar
